Measurements reported in ChEMBL document CHEMBL5303573, “Mapping human microbiome drug metabolism by gut bacteria and their genes” (Nature, 2019).

Columns and labels:
Format in all cases: ADME
Design in all cases: dose 2 uM
Conditions in all cases: 2 µM
[1] = biological target: T1, SGNH hydrolase-type esterase domain-containing protein (Phocaeicola dorei, UniProt B6W293); assay: (§1) The drug is tested on Bacteroides dorei strain: DSM17855 for biotransformation. The drug concentrations were measured before and after a 12-h incubation by liquid-chromatography-coupled mass spectrometry (LC–MS)
T1 sequence (B6W293 whole entry): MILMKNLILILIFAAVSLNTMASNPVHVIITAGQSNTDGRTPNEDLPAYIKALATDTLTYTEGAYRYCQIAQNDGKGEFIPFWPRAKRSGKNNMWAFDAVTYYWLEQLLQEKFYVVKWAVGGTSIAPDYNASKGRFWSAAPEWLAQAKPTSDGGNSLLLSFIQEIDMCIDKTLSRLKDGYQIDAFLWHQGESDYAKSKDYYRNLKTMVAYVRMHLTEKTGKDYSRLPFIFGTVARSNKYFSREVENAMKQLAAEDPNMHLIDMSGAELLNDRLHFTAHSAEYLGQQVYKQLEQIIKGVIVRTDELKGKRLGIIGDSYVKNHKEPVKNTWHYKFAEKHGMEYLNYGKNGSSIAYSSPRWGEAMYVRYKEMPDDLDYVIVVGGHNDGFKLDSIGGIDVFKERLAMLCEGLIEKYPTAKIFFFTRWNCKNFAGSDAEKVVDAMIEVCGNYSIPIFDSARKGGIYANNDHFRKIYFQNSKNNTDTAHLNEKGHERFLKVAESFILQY

[2] = biological target: T2, SGNH hydrolase-type esterase domain-containing protein (Phocaeicola dorei, UniProt B6VTE7); assay: as §1
T2 sequence (B6VTE7 whole entry): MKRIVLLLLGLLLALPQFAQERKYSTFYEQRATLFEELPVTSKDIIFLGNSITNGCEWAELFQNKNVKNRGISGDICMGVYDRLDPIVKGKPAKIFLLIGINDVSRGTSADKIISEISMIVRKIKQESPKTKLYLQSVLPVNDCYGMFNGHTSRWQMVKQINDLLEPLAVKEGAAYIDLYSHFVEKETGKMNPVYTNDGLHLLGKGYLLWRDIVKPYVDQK

Esterase = biological target: T3, Esterase (Phocaeicola dorei, UniProt B6W2J6); assay: as §1
T3 sequence (B6W2J6 whole entry): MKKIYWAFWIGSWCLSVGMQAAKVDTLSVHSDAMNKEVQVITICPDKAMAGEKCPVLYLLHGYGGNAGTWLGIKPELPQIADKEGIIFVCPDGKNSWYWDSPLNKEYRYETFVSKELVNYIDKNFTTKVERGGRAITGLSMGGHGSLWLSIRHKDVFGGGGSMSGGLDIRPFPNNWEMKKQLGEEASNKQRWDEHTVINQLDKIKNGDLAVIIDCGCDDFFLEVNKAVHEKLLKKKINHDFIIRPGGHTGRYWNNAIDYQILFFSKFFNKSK

[3] = biological target: T4, Nitroreductase domain-containing protein (Phocaeicola dorei, UniProt B6W3P3); assay: as §1
T4 sequence (B6W3P3 whole entry): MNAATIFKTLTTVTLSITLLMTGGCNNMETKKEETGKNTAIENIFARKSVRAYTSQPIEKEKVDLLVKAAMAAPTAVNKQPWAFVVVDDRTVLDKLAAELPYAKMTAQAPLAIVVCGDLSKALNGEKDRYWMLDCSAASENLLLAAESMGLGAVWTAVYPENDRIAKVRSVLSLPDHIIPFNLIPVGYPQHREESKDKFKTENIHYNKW

[4] = biological target: T5, SGNH hydrolase-type esterase domain-containing protein (Phocaeicola dorei, UniProt B6W1J1); assay: as §1
T5 sequence (B6W1J1 whole entry): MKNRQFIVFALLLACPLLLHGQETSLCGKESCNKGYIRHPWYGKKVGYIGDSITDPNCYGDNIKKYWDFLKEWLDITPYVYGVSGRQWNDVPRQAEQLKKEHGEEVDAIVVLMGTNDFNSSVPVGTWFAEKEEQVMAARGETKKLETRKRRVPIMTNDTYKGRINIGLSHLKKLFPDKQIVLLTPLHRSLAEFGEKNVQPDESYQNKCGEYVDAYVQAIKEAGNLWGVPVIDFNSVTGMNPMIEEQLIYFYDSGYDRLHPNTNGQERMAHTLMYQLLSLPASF

[5] = biological target: T6, Nitroreductase domain-containing protein (Phocaeicola dorei, UniProt B6VU18); assay: as §1
T6 sequence (B6VU18 whole entry): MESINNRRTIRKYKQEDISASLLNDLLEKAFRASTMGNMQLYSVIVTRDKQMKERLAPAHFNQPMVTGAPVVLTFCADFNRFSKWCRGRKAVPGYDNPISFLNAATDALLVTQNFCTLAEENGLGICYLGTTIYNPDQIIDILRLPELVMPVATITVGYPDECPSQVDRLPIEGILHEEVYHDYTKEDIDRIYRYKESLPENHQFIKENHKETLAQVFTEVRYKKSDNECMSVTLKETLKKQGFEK

[6] = biological target: T7, Steroid 5-alpha reductase C-terminal domain-containing protein (Phocaeicola dorei, UniProt B6W0N3); assay: as §1
T7 sequence (B6W0N3 whole entry): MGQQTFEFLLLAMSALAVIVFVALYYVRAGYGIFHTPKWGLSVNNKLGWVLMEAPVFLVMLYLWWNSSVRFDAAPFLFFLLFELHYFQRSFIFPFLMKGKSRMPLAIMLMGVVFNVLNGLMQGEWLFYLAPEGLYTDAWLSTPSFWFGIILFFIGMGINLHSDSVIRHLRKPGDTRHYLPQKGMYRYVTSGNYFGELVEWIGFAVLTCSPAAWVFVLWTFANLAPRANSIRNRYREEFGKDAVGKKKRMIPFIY

[7] = biological target: T8, Acyltransferase 3 domain-containing protein (Phocaeicola dorei, UniProt B6W2J3); assay: as §1
T8 sequence (B6W2J3 whole entry): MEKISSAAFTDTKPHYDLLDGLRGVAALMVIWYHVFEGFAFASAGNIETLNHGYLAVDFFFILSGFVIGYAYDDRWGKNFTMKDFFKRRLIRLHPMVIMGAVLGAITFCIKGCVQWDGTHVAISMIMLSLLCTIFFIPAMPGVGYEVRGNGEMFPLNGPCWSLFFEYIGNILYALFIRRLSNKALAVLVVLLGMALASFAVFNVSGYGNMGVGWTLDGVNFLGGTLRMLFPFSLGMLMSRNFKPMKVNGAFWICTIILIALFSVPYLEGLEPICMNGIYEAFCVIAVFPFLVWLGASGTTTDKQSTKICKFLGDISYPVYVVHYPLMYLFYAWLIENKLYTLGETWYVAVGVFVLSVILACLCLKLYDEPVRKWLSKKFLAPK

Row | Bacterial Biotransformation [1] | Bacterial Biotransformation [2] | Bacterial Biotransformation (Esterase) | Bacterial Biotransformation [3] | Bacterial Biotransformation [4] | Bacterial Biotransformation [5] | Bacterial Biotransformation [6] | Bacterial Biotransformation [7] | Compound
1 | Compound NOT metabolized | Compound NOT metabolized | Compound NOT metabolized | Compound NOT metabolized | Compound NOT metabolized | Compound NOT metabolized | Compound NOT metabolized | Compound NOT metabolized | CC(=O)SCC(Cc1ccccc1)C(=O)NCC(=O)OCc1ccccc1 (configuration not stated) [RACECADOTRIL]
2 | Compound NOT metabolized | Compound NOT metabolized | Compound NOT metabolized | Compound NOT metabolized | Compound NOT metabolized | Compound NOT metabolized | Compound NOT metabolized | Compound NOT metabolized | CC(=O)OCC(=O)NCCCOc1cccc(CN2CCCCC2)c1 [ROXATIDINE ACETATE]
3 | Compound NOT metabolized | Compound NOT metabolized | Compound NOT metabolized | Compound NOT metabolized | Compound NOT metabolized | Compound NOT metabolized | Compound NOT metabolized | Compound NOT metabolized | O=C(O)c1cc(/N=N/c2ccc(S(=O)(=O)Nc3ccccn3)cc2)ccc1O [SULFASALAZINE]
4 | Compound NOT metabolized | Compound NOT metabolized | Compound NOT metabolized | Compound metabolized | Compound NOT metabolized | Compound metabolized | Compound NOT metabolized | Compound NOT metabolized | CCS(=O)(=O)CCn1c([N+](=O)[O-])cnc1C [TINIDAZOLE]
